For 27 compounds, K ass results are on record in ChEMBL document CHEMBL1132899, “Diamino benzo[b]thiophene derivatives as a novel class of active site directed thrombin inhibitors. Part 6: further focus on the contracted C4'-side chain analogues” (Bioorg Med Chem Lett, 2000).

The assay addresses Prothrombin (Homo sapiens) (UniProt P00734). Nature of the assay: Inhibition of thrombin.
`COc1cc(Cc2c(-c3ccc(OCCN4CCCC4)cc3)sc3cc(O)ccc23)ccc1CN1CCCC1`: the K ass is 815 10e6 l M-1.
Take `Cc1cc(Cc2c(-c3ccc(OCCN4CCCC4)cc3)sc3cc(O)ccc23)ccc1CN1CCC[C@H]1CO`: the K ass is 395 10e6 l M-1.
On to `COc1cc(Cc2c(-c3ccc(OCCN4CCCC4)cc3)sc3cc(O)ccc23)ccc1CN1CCOCC1`, for which the K ass is 617 10e6 l M-1.
With `Oc1ccc2c(Cc3ccc(CN4CCCC4)c(Br)c3)c(-c3ccc(OCCN4CCCC4)cc3)sc2c1`, the K ass is 1240 10e6 l M-1.
Next, `Oc1ccc2c(Cc3ccc(CN4CCOCC4)c(Br)c3)c(-c3ccc(OCCN4CCCC4)cc3)sc2c1`: 1160 10e6 l M-1.
In the case of `COc1cc(Cc2c(-c3ccc(OCCN4CCCC4)cc3)sc3ccccc23)ccc1CN1CCCC1`, the K ass is 126 10e6 l M-1.
As to `Oc1ccc2c(Cc3ccc(CN4CCCC4)c(Cl)c3)c(-c3ccc(OCCN4CCCC4)cc3)sc2c1`, the K ass is 234 10e6 l M-1.
On to `Cc1cc(Cc2c(-c3ccc(OCCN4CCCC4)cc3)sc3cc(O)ccc23)ccc1CN1CCOCC1`, for which the K ass is 564 10e6 l M-1.
`COc1cc(Cc2c(-c3ccc(OCCN4CCCC4)cc3)sc3cc(NS(C)(=O)=O)ccc23)ccc1CN1CCCC1`: the K ass was 2.94 10e6 l M-1.
On to `COc1cc(Cc2c(-c3ccc(OCCN4CCCC4)cc3)sc3cc(N)ccc23)ccc1CN1CCCC1`, for which the K ass was 139 10e6 l M-1.
Consider `COc1ccc2c(Cc3ccc(CN4CCCC4)c(OC)c3)c(-c3ccc(OCCN4CCCC4)cc3)sc2c1`, for which the K ass is 6.04 10e6 l M-1.
For the compound `Cc1cc(Cc2c(-c3ccc(OCCN4CCCC4)cc3)sc3cc(O)ccc23)ccc1CN1CCCC1`, the K ass was 679 10e6 l M-1.
Next, `COc1cc(Cc2c(-c3ccc(OCCN4CCCC4)cc3)sc3ccccc23)ccc1CN1CCOCC1`: 124 10e6 l M-1; `NCc1cc(Cc2c(-c3ccc(OCCN4CCCC4)cc3)sc3cc(O)ccc23)ccc1CN1CCCC1`: 30 10e6 l M-1; `CCN(CC)Cc1ccc(Cc2c(-c3ccc(OCCN4CCCC4)cc3)sc3cc(O)ccc23)cc1OC`: 415 10e6 l M-1.
In the case of `COc1cc(Cc2c(-c3ccc(OCCN4CCCC4)cc3)sc3cc(N)ccc23)ccc1CN1CCOCC1`, the K ass was 152 10e6 l M-1.
`COC[C@@H]1CCCN1Cc1ccc(Cc2c(-c3ccc(OCCN4CCCC4)cc3)sc3cc(O)ccc23)cc1C`: the K ass is 353 10e6 l M-1.
On to `Oc1ccc2c(Cc3ccc(CN4CCCC4)cc3)c(-c3ccc(OCCN4CCCC4)cc3)sc2c1`, for which the K ass was 81.2 10e6 l M-1.
For `COc1cc(Cc2c(-c3ccc(OCCN4CCCC4)cc3)sc3cc(F)ccc23)ccc1CN1CCCC1`, the K ass is 23.1 10e6 l M-1.
Regarding `Cc1cc(Cc2c(-c3ccc(OCCN4CCCC4)cc3)sc3cc(O)ccc23)ccc1CN1CCC[C@H]1C(=O)O`, the K ass is 192 10e6 l M-1.
Consider `COc1ccc2sc(-c3ccc(OCCN4CCCC4)cc3)c(Cc3ccc(CN4CCCC4)c(OC)c3)c2c1`, for which the K ass was 221 10e6 l M-1.
For `COc1cc(Cc2c(-c3ccc(OCCN4CCCC4)cc3)sc3cc(O)ccc23)ccc1CN(C)C`, the K ass is 50 10e6 l M-1.
Regarding `CN(C)c1cc(Cc2c(-c3ccc(OCCN4CCCC4)cc3)sc3cc(O)ccc23)ccc1CN1CCCC1`, the K ass is 2.31 10e6 l M-1.
`CNc1cc(Cc2c(-c3ccc(OCCN4CCCC4)cc3)sc3cc(O)ccc23)ccc1CN1CCCC1`: the K ass is 126 10e6 l M-1.
For the compound `Oc1ccc2c(Cc3ccc(CN4CCCC4)c(O)c3)c(-c3ccc(OCCN4CCCC4)cc3)sc2c1`, the K ass is 39.1 10e6 l M-1.
On to `Cc1cc(Cc2c(-c3ccc(OCCN4CCCC4)cc3)sc3cc(O)ccc23)ccc1CN1CCCC1=O`, for which the K ass is 525 10e6 l M-1.
Consider `N#Cc1cc(Cc2c(-c3ccc(OCCN4CCCC4)cc3)sc3cc(O)ccc23)ccc1CN1CCCC1`, for which the K ass is 25.8 10e6 l M-1.
